Experimental data as given in ChEMBL document CHEMBL1157845, “Structure-activity relationship of new anti-tuberculosis agents derived from oxazoline and oxazole benzyl esters” (Eur J Med Chem, 2010).
Values after ≈ are worked out from the molar mass of the structure shown. Active and inactive are the calls of the source. Unless noted, the rule behind the calls is not given here.

What was measured:
Vero = assay: Cytotoxicity against african green monkey Vero cells by colorimetric assay; assay type: cell-based; conditions: Chlorocebus sabaeus
[1] = system: Mycobacterium tuberculosis; assay: Antimycobacterial activity against Mycobacterium tuberculosis H37Rv ATCC 27294 in GAS medium after 1 week by microplate alamar blue assay; assay type: functional; conditions: H37Rv ATCC 27294, 168 h
[2] = system: Mycobacterium tuberculosis; assay: Antimycobacterial activity against Mycobacterium tuberculosis H37Rv ATCC 27294 in GAST medium after 1 week by microplate alamar blue assay; assay type: functional; conditions: H37Rv ATCC 27294, 168 h
[3] = system: Mycobacterium tuberculosis; assay: Antimycobacterial activity against Mycobacterium tuberculosis Erdman infected in BALB/c mouse assessed as reduction of bacterial load at 200 mg/kg, po qd for 5 days per week administered 60 days after infection measured after 85 days post infection; assay type: functional, organism-based; parameters: dose 200 mg/kg
Colletotrichum = assay: Antifungal activity against Glomerella; assay type: functional, organism-based
[4] = system: Mycolicibacterium fortuitum; assay: Antimycobacterial activity against Mycobacterium fortuitum B; assay type: functional, organism-based
Liver microsomes = assay: Metabolic stability in Sprague-Dawley rat microsomes assessed as compound remaining after 15 mins by HPLC analysis; assay type: ADME, Microsome; conditions: 0.25 h
[5] = system: Mycolicibacterium fortuitum; assay: Antimycobacterial activity against Mycobacterium fortuitum B by agar diffusion assay; assay type: functional, organism-based
Bacillus subtilis = assay: Antibacterial activity against Bacillus subtilis ATCC 6633; assay type: functional, organism-based
Escherichia coli = assay: Antibacterial activity against Escherichia coli SG 458; assay type: functional, organism-based
Proteus vulgaris = assay: Antibacterial activity against Proteus vulgaris OX 19; assay type: functional, organism-based
Mycolicibacterium vaccae [6] = assay: Antimycobacterial activity against Mycobacterium vaccae 10670 by agar diffusion assay; assay type: functional, organism-based
Mycolicibacterium aurum [7] = assay: Antimycobacterial activity against Mycobacterium aurum DSM 43536; assay type: functional, organism-based
Mycobacterium avium [8] = assay: Antimycobacterial activity against Mycobacterium avium MAC 100; assay type: functional, organism-based
[9] = Chemical stability in simulated gastric fluid assessed as compound remaining after 2 hrs by HPLC analysis; assay type: physicochemical; conditions: simulated gi fluid
Mus musculus [10] = assay: Toxicity in mouse assessed as behavioral change at 100 mg/kg, po qd for 5 days followed by 2 days rest and 200 mg/kg, po qd for 5 days; assay type: organism-based; conditions: in vivo
[11] = system: Sporobolomyces salmonicolor; assay: Antimicrobial activity against Sporobolomyces salmonicolor SBUG 549; assay type: functional, organism-based
Mus musculus [12] = assay: Toxicity in mouse assessed as change in gross appearance at 100 mg/kg, po qd for 5 days followed by 2 days rest and 200 mg/kg, po qd for 5 days; assay type: organism-based; conditions: in vivo
Candida albicans = assay: Antifungal activity against Candida albicans; assay type: functional, organism-based
Mycolicibacterium vaccae [13] = assay: Antimycobacterial activity against Mycobacterium vaccae 10670; assay type: functional, organism-based
Mycolicibacterium aurum [14] = assay: Antimycobacterial activity against Mycobacterium aurum SB 66; assay type: functional, organism-based
Mycobacterium avium [15] = assay: Antimycobacterial activity against Mycobacterium avium MAC 101; assay type: functional, organism-based
Mycobacterium avium [16] = assay: Antimycobacterial activity against Mycobacterium avium MAC 108; assay type: functional, organism-based
Micrococcus luteus = assay: Antibacterial activity against Micrococcus luteus ATCC 10240; assay type: functional, organism-based
Staphylococcus aureus = assay: Antibacterial activity against Staphylococcus aureus SG 511; assay type: functional, organism-based
Mycobacterium avium [17] = assay: Antimycobacterial activity against Mycobacterium avium MAC 116; assay type: functional, organism-based
[18] = system: Mycolicibacterium smegmatis; assay: Antimycobacterial activity against Mycobacterium smegmatis SG 987; assay type: functional, organism-based
Mus musculus [19] = assay: Toxicity in mouse assessed as change in body weight at 100 mg/kg, po qd for 5 days followed by 2 days rest and 200 mg/kg, po qd for 5 days; assay type: organism-based; conditions: in vivo
[20] = system: Mycobacterium tuberculosis; assay: Antimycobacterial activity against Mycobacterium tuberculosis H37Rv ATCC 27294 incubated 10 days under anaerobic condition measured after 24 hrs recovery in air by luciferase based low oxygen recovery assay; assay type: functional
Mycobacterium avium [21] = assay: Antimycobacterial activity against Mycobacterium avium MAC 109; assay type: functional, organism-based

Which IC50 (Vero) does the source give for `O=C(OCc1ccccc1)c1coc(-c2cccc(Cl)c2)n1` here?
Its IC50 is > 128 µM.

And the MIC [1]?
Its MIC is 1.25 µM (≈ 0.392 µg/mL).

And the MIC [2]?
The MIC was 0.99 µM (≈ 0.311 µg/mL).

What about the Activity [3] of the same compound?
Its Activity is “inactive”.

Which Activity (Colletotrichum) does the source give for `O=C(OCc1ccccc1)[C@@H]1COC(c2ccccc2)=N1` here?
Its Activity is “inactive”.

What about the Activity [4] of the same compound?
The Activity was “inactive”.

What about the Stability (Liver microsomes) of the same compound?
Its Stability is 5.7%.

What about the Activity [5] of the same compound?
Its Activity is “Active”.

What about the IC50 (Vero) of the same compound?
Its IC50 is > 128 µM.

What about the Activity (Bacillus subtilis) of the same compound?
The Activity was “inactive”.

What about the Activity (Escherichia coli) of the same compound?
Its Activity is “inactive”.

What about the Activity (Proteus vulgaris) of the same compound?
Its Activity is “inactive”.

And the MIC [1]?
Its MIC is 7.2 µM (≈ 2.03 µg/mL).

And the Activity (Mycolicibacterium vaccae [6])?
The Activity was “inactive”.

And the Activity (Mycolicibacterium aurum [7])?
Its Activity is “inactive”.

What about the Activity (Mycobacterium avium [8]) of the same compound?
Its Activity is “inactive”.

And the Stability [9]?
Its Stability is 0.4%.

What about the MIC [2] of the same compound?
The MIC was 4.42 µM (≈ 1.24 µg/mL).

What about the Activity (Mus musculus [10]) of the same compound?
The Activity was “Non-toxic”.

And the Activity [3]?
The Activity was “inactive”.

And the Activity [11]?
Its Activity is “inactive”.

What about the Activity (Mus musculus [12]) of the same compound?
Its Activity is “Non-toxic”.

And the Activity (Candida albicans)?
The Activity was “inactive”.

And the Activity (Mycolicibacterium vaccae [13])?
Its Activity is “inactive”.

What about the Activity (Mycolicibacterium aurum [14]) of the same compound?
The Activity was “inactive”.

And the Activity (Mycobacterium avium [15])?
Its Activity is “inactive”.

And the Activity (Mycobacterium avium [16])?
Its Activity is “inactive”.

And the Activity (Micrococcus luteus)?
The Activity was “inactive”.

What about the Activity (Staphylococcus aureus) of the same compound?
Its Activity is “inactive”.

And the Activity (Mycobacterium avium [17])?
The Activity was “inactive”.

What about the Activity [18] of the same compound?
The Activity was “inactive”.

What about the Activity (Mus musculus [19]) of the same compound?
Its Activity is “Non-toxic”.

What about the MIC [20] of the same compound?
Its MIC is 63 µM (≈ 17.7 µg/mL).

What about the Activity (Mycobacterium avium [21]) of the same compound?
The Activity was “inactive”.

Which results are given for `O=C(OCc1ccccc1)c1coc(-c2cncc(-c3ccccc3)c2)n1`?
IC50 (Vero): > 128 µM; MIC [1]: 1.49 µM (≈ 0.531 µg/mL); MIC [2]: 0.98 µM (≈ 0.349 µg/mL); Activity [3]: inactive

Which results are given for `COc1ccc(-c2nc(C(=O)OCc3ccccc3)co2)cc1F`?
IC50 (Vero): > 128 µM; MIC [1]: 5.55 µM (≈ 1.82 µg/mL); MIC [2]: 6.99 µM (≈ 2.29 µg/mL); Activity [3]: inactive

Which IC50 (Vero) does the source give for `O=C(OCc1ccccc1)c1coc(-c2ccc(Cl)cc2)n1` here?
Its IC50 is > 128 µM.

And the MIC [1]?
The MIC was 18.9 µM (≈ 5.93 µg/mL).

What about the MIC [2] of the same compound?
The MIC was 7.77 µM (≈ 2.44 µg/mL).

What about the Activity [3] of the same compound?
Its Activity is “inactive”.

What about the MIC [20] of the same compound?
The MIC was 56.2 µM (≈ 17.6 µg/mL).

With `Cc1oc(-c2ccccc2OCc2ccccc2)nc1C(=O)OCc1ccccc1` as the compound, how does the IC50 (Vero) read?
Its IC50 is 110 µM.

What about the MIC [1] of the same compound?
The MIC was 28.3 µM (≈ 11.3 µg/mL).

What about the MIC [2] of the same compound?
Its MIC is > 128 µM.

And the Activity [3]?
The Activity was “inactive”.

For `Cc1oc(-c2ccc(F)cc2[N+](=O)[O-])nc1C(=O)OCc1ccccc1`, which IC50 (Vero) is on record?
Its IC50 is > 128 µM.

And the MIC [1]?
Its MIC is 15 µM (≈ 5.34 µg/mL).

And the MIC [2]?
The MIC was 4.62 µM (≈ 1.65 µg/mL).

What about the Activity [3] of the same compound?
Its Activity is “inactive”.

What about the MIC [20] of the same compound?
Its MIC is > 128 µM.

Which IC50 (Vero) does the source give for `Cc1oc(-c2ccccc2)nc1C(=O)OCc1ccccc1` here?
Its IC50 is 35 µM.

And the MIC [1]?
The MIC was 3.92 µM (≈ 1.15 µg/mL).

And the MIC [2]?
The MIC was 15.2 µM (≈ 4.46 µg/mL).

And the Activity [3]?
Its Activity is “inactive”.

And the MIC [20]?
Its MIC is > 128 µM.

With `CCOc1ccc(-c2nc(C(=O)OCc3ccccc3)co2)cc1` as the compound, how does the IC50 (Vero) read?
The IC50 was > 128 µM.

And the MIC [1]?
Its MIC is 15.5 µM (≈ 5.01 µg/mL).

And the MIC [2]?
The MIC was 1.97 µM (≈ 0.637 µg/mL).

And the Activity [3]?
The Activity was “inactive”.

What about the MIC [20] of the same compound?
Its MIC is 29.7 µM (≈ 9.6 µg/mL).

Which IC50 (Vero) does the source give for `O=C(OCc1ccccc1)[C@@H]1COC(c2ccc(OCc3ccccc3)c(F)c2)=N1` here?
Its IC50 is > 128 µM.

And the MIC [1]?
The MIC was 0.77 µM (≈ 0.312 µg/mL).

What about the MIC [2] of the same compound?
The MIC was 1.42 µM (≈ 0.576 µg/mL).

What about the Activity [3] of the same compound?
The Activity was “inactive”.

Which IC50 (Vero) does the source give for `O=C(OCc1ccccc1)c1coc(-c2ccc(F)cc2[N+](=O)[O-])n1` here?
The IC50 was > 128 µM.

What about the MIC [1] of the same compound?
Its MIC is 2.4 µM (≈ 0.821 µg/mL).

What about the MIC [2] of the same compound?
Its MIC is 9.9 µM (≈ 3.39 µg/mL).

And the Activity [3]?
Its Activity is “inactive”.

Which IC50 (Vero) does the source give for `C[C@@H]1OC(c2ccc(F)cc2[N+](=O)[O-])=N[C@@H]1C(=O)OCc1ccccc1` here?
The IC50 was 38.1 µM.

And the MIC [1]?
The MIC was 12.5 µM (≈ 4.48 µg/mL).

And the MIC [2]?
The MIC was 4.11 µM (≈ 1.47 µg/mL).

What about the Activity [3] of the same compound?
The Activity was “inactive”.

Which IC50 (Vero) does the source give for `Nc1ccc(-c2nc(C(=O)OCc3ccccc3)co2)cc1` here?
Its IC50 is > 128 µM.

What about the MIC [1] of the same compound?
The MIC was 1.98 µM (≈ 0.583 µg/mL).

And the MIC [2]?
The MIC was 3.67 µM (≈ 1.08 µg/mL).

And the Activity [3]?
The Activity was “inactive”.

And the MIC [20]?
The MIC was 68.6 µM (≈ 20.2 µg/mL).
